Bounds are passed on as bounds.

43 compounds from patent US20240025891A1 (Celgene Corporation, priority 2020, published 2024) can be followed below.

The test system of the experiment is Dirofilaria immitis microfilariae and 4th stage larvae (L4). Briefly: Heartworm screen Dirofilaria immitis (DiMF and DiL4 assays). Type of experiment: cell-based. The note with it: read-out: D. immitis Act class. As to the method: Heartworm Screen Dirofilaria immitis (D. immitis)
Dirofilaria immitis, Microfilaria (DiMF) Assay. Compounds were dissolved and serially diluted in DMSO. Aliquots were spotted to the empty wells of assay plates. Media and microfilariae of Dirofilaria immitis were added to each well to dilute the test compounds to the desired concentrations. Assay plates were incubated for approximately 72 hours, and the larvae in each well were observed microscopically for drug effect. Microfilariae in each well were assessed subjectively for survival or paralysis, and results were reported as Minimum Effective Dose (MED).
Dirofilaria immitis, L4 stage (DiL4) Assay. Compounds were dissolved and serially diluted in DMSO. Aliquots were spotted to the empty wells of assay plates. Media and 4th stage larvae (L4) of Dirofilaria immitis were added to each well to dilute the test compounds to the desired concentrations. Assay plates were incubated for approximately 72 hours, and the larvae in each well were observed microscopically for drug effect. Larvae in each well were assessed subjectively for survival or paralysis, and results were reported as Minimum Effective Dose (MED).
Active and selective (DiL4 vs. DiMF potency) example compounds were subsequently evaluated in heartworm positive dog studies to correlate the in vitro selectivity profile with in vivo effects on circulating microfilariae.
With `Cc1cccnc1Nc1nc(-c2ccc(OC3CC3)cn2)cs1` [Example 48], the IC50 is 200 to 500 nM.
Regarding `c1ccc(-c2csc(Nc3ccc4cc[nH]c4n3)n2)nc1` [Example 134, 4-(pyridin-2-yl)-N-(1H-pyrrolo [2,3-b]pyridin-6-yl)thiazol-2-amine], the IC50 lay within 500 to 5000 nM.
For `CC(C)c1ccc(Nc2nc(-c3ccccn3)cs2)nc1` [Example 219, N-(5-isopropylpyridin-2-yl)-4-(pyridin-2-yl)thiazol-2-amine], the IC50 is less than 200 nM.
On to `CCOc1ccc(-c2csc(Nc3ccc(Cl)cn3)n2)nc1` [Example 85, N-(5-chloropyridin-2-yl)-4-(5-ethoxypyridin-2-yl)thiazol-2-amine], for which the IC50 is 500 to 5000 nM.
Take `CCOc1ccc(-c2csc(Nc3nc(C)ccc3C)n2)nc1` [Example 86, N-(3,6-dimethylpyridin-2-yl)-4-(5-ethoxypyridin-2-yl)thiazol-2-amine]: the IC50 lay in the range of 200 to 500 nM.
For `CC(=O)N(C)c1cc(C(F)(F)F)cnc1Nc1nc(-c2cc3c(cn2)N(C)CC3)cs1` [Example 76, N-methyl-N-(2-(4-(1-methyl-2,3-dihydro-1H-pyrrolo[2,3-c]pyridin-5-yl)thiazol-2-ylamino)-5-(trifluoromethyl)pyridin-3-yl)acetamide], the IC50 lay in the range of 500 to 5000 nM.
With `CC(=O)N(C)c1cc(C(F)(F)F)cnc1Nc1nc(-c2ccccn2)cs1` [Example 212, N-methyl-N-(2-(4-(pyridin-2-yl)thiazol-2-ylamino)-5-(trifluoro-methyl)pyridin-3-yl) acetamide] the figure was 500 to 5000 nM.
Take `CC(=O)N(C)c1cc(C(F)(F)F)cnc1Nc1nc(-c2cc(OC(C)C)ccn2)cs1` [Example 82, N-(2-(4-(4-isopropoxypyridin-2-yl)thiazol-2-ylamino)-5-(trifluoromethyl)pyridin-3-yl)-N-methylacetamide]: the IC50 was 200 to 500 nM.
As for `CCCCc1ccnc(Nc2nc(-c3ccccn3)cs2)c1` [Example 167, N-(4-butylpyridin-2-yl)-4-(pyridin-2-yl)thiazol-2-amine], the IC50 was less than 200 nM.
The value for `Cc1ccnc(-c2csc(Nc3ncccc3-c3ccccc3)n2)c1` [Example 99, 4-(4-methylpyridin-2-yl)-N-(3-phenylpyridin-2-yl)thiazol-2-amine] was less than 200 nM.
The value for `COc1ccnc(Nc2nc(-c3ccccn3)cs2)c1` [Example 121, N-(4-methoxypyridin-2-yl)-4-(pyridin-2-yl)thiazol-2-amine] was 200 to 500 nM; that for `CCCc1ccnc(Nc2nc(-c3ccccn3)cs2)c1` [Example 172, N-(4-propylpyridin-2-yl)-4-(pyridin-2-yl)thiazol-2-amine] was less than 200 nM; that for `CCOc1cccnc1-c1csc(Nc2ncccc2C)n1` [Example 77, 4-(3-ethoxypyridin-2-yl)-N-(3-methylpyridin-2-yl)thiazol-2-amine] was less than 200 nM.
For the compound `COc1ccc(-c2csc(Nc3cc(C)ccn3)n2)nc1` [Example 225, 4-(5-methoxypyridin-2-yl)-N-(4-methylpyridin-2-yl)thiazol-2-amine], the IC50 was 200 to 500 nM.
As to `Cc1cnc(Nc2nc(-c3ccccn3)cs2)cc1C(F)(F)F` [Example 129, N-(5-methyl-4-(trifluoro-methyl)pyridin-2-yl)-4-(pyridin-2-yl)thiazol-2-amine], the IC50 is less than 200 nM.
The value for `COc1ccc(Nc2nc(-c3ccccn3)cs2)nc1` [Example 218, N-(5-methoxypyridin-2-yl)-4-(pyridin-2-yl)thiazol-2-amine] was 500 to 5000 nM; that for `CCOc1cccnc1-c1csc(Nc2cc(C)ccn2)n1` [Example 72, 4-(3-ethoxypyridin-2-yl)-N-(4-methylpyridin-2-yl)thiazol-2-amine] was less than 200 nM.
For the compound `Cc1ccnc(Nc2nc(-c3cc(Cl)ccn3)cs2)c1` [Example 223, 4-(4-chloropyridin-2-yl)-N-(4-methylpyridin-2-yl)thiazol-2-amine], the IC50 is less than 200 nM.
In the case of `CCOc1ccc(-c2csc(Nc3ncc(C(F)(F)F)cc3C)n2)nc1` [Example 84, 4-(5-ethoxypyridin-2-yl)-N-(3-methyl-5-(trifluoromethyl)pyridin-2-yl)thiazol-2-amine], the IC50 fell in the range of 200 to 500 nM.
`CCOc1ccc(-c2csc(Nc3cc(C)ccn3)n2)nc1` [Example 91, 4-(5-ethoxypyridin-2-yl)-N-(4-methylpyridin-2-yl)thiazol-2-amine]: the IC50 is less than 200 nM.
Consider `Cc1ccnc(Nc2nc(-c3ncccc3C#N)cs2)c1` [Example 92, 2-(2-(4-methylpyridin-2-ylamino)thiazol-4-yl)nicotinonitrile], for which the IC50 was 500 to 5000 nM.
On to `CC(=O)N(C)c1cc(C(F)(F)F)cnc1Nc1nc(-c2cc(OC3COC3)ccn2)cs1` [Example 73, N-methyl-N-(2-(4-(4-(oxetan-3-yloxy)pyridin-2-yl)thiazol-2-ylamino)-5-(trifluoromethyl)pyridin-3-yl)acetamide], for which the IC50 is 500 to 5000 nM.
`CCc1sc(Nc2cc(C)ccn2)nc1-c1ccccn1` [Example 184, 5-ethyl-N-(4-methylpyridin-2-yl)-4-(pyridin-2-yl)thiazol-2-amine]: the IC50 was in the range of 200 to 500 nM.
As for `CCOc1ccc(-c2csc(Nc3ncccc3C3CC3)n2)nc1` [Example 83, N-(3-cyclopropylpyridin-2-yl)-4-(5-ethoxypyridin-2-yl)thiazol-2-amine], the IC50 is 500 to 5000 nM.
Turning to `Cc1ccnc(Nc2nc(-c3cc(-c4ccccc4)ccn3)cs2)c1` [Example 101, N-(4-methylpyridin-2-yl)-4-(4-phenylpyridin-2-yl)thiazol-2-amine], the IC50 was less than 200 nM.
Turning to `CCc1cnc(Nc2nc(-c3ccccn3)cs2)cc1C(F)(F)F` [Example 130, N-(5-ethyl-4-(trifluoro-methyl)pyridin-2-yl)-4-(pyridin-2-yl)thiazol-2-amine], the IC50 was less than 200 nM.
The value for `Cc1ccnc(Nc2nc(-c3cc(OC4COC4)ccn3)cs2)c1` [Example 102, N-(4-methylpyridin-2-yl)-4-(4-(oxetan-3-yloxy)pyridin-2-yl)thiazol-2-amine] was 500 to 5000 nM; that for `Cc1ccnc(-c2csc(Nc3ncccc3C)n2)c1` [Example 222, N-(3-methylpyridin-2-yl)-4-(4-methylpyridin-2-yl)thiazol-2-amine] was less than 200 nM.
The value for `Cc1cnc(Nc2nc(-c3ccccn3)cs2)c(C)c1` [Example 124, N-(3,5-dimethyl-pyridin-2-yl)-4-(pyridin-2-yl)thiazol-2-amine] was less than 200 nM; that for `CNC(=O)c1ccc(-c2ccnc(Nc3nc(-c4ccccn4)cs3)c2)cc1` [Example 171, N-methyl-4-(2-(4-(pyridin-2-yl)thiazol-2-ylamino)pyridin-4-yl)benzamide] was 500 to 5000 nM.
The value for `CCOc1cccc(-c2csc(Nc3cc(C)ccn3)n2)n1` [Example 78, 4-(6-ethoxypyridin-2-yl)-N-(4-methylpyridin-2-yl)thiazol-2-amine] was 500 to 5000 nM; that for `Cc1ccnc(Nc2nc(-c3ccccn3)c(COCC3CCC3)s2)c1` [Example 182, 5-((cyclobutyl-methoxy)methyl)-N-(4-methylpyridin-2-yl)-4-(pyridin-2-yl)thiazol-2-amine] was less than 200 nM.
Take `c1ccc(-c2csc(Nc3cc(-c4ncccn4)ccn3)n2)nc1` [Example 174, 4-(pyridin-2-yl)-N-(4-(pyrimidin-2-yl)pyridin-2-yl)thiazol-2-amine]: the IC50 lay in the range of 200 to 500 nM.
The value for `Cc1ccc(-c2csc(Nc3cc(C)ccn3)n2)nc1` [Example 1, N-(4-Methylpyridin-2-yl)-4-(5-methylpyridin-2-yl)thiazol-2-amine] was less than 200 nM; that for `Cc1ccnc(Nc2nc(-c3cc(OC4CN(C)C4)ccn3)cs2)c1` [Example 98, 4-(4-(1-methylazetidin-3-yloxy)pyridin-2-yl)-N-(4-methylpyridin-2-yl)thiazol-2-amine] was 500 to 5000 nM; that for `c1ccc(-c2ccnc(Nc3nc(-c4ccccn4)cs3)c2)cc1` [Example 126, N-(4-phenylpyridin-2-yl)-4-(pyridin-2-yl)thiazol-2-amine] was less than 200 nM.
In the case of `CCOc1ccnc(-c2csc(Nc3cc(C)ccn3)n2)c1` [Example 224, 4-(4-ethoxypyridin-2-yl)-N-(4-methylpyridin-2-yl)thiazol-2-amine], the IC50 fell in the range of 200 to 500 nM.
On to `Cc1sc(Nc2ccccn2)nc1-c1ccccn1` [Example 227, 5-methyl-N,4-di(pyridin-2-yl)thiazol-2-amine], for which the IC50 was less than 200 nM.
On to `CCOc1cnc(-c2csc(Nc3ncccc3C)n2)c(C)c1` [Example 75, 4-(5-ethoxy-3-methylpyridin-2-yl)-N-(3-methylpyridin-2-yl)thiazol-2-amine], for which the IC50 was less than 200 nM.
Regarding `Cc1ccnc(Nc2nc(-c3cccnc3)cs2)c1` [Example 226, N-(4-methylpyridin-2-yl)-4-(pyridin-3-yl)thiazol-2-amine], the IC50 fell in the range of 200 to 500 nM.
For `c1ccc(-c2cccnc2Nc2nc(-c3ccccn3)cs2)cc1` [Example 125, N-(3-phenylpyridin-2-yl)-4-(pyridin-2-yl)thiazol-2-amine], the IC50 was in the range of 500 to 5000 nM.
`Cc1ccnc(Nc2nc(-c3ccccn3)c(CN3CCC3)s2)c1` [Example 183, 5-(azetidin-1-ylmethyl)-N-(4-methylpyridin-2-yl)-4-(pyridin-2-yl)thiazol-2-amine]: the IC50 is 500 to 5000 nM.
As for `COc1ccnc(-c2csc(Nc3ncc(C(F)(F)F)cc3N(C)C(C)=O)n2)c1` [Example 96, N-(2-(4-(4-methoxypyridin-2-yl)thiazol-2-ylamino)-5-(trifluoromethyl)pyridin-3-yl)-N-methylacetamide], the IC50 is 200 to 500 nM.
